This is an account of results in ChEMBL document CHEMBL5512632, “Unlocking the potential of 1,4-naphthoquinones: A comprehensive review of their anticancer properties” (Eur J Med Chem, 2024).

What all share (assay type): functional, cell-based
The subject of assay [1] is MCF7. The experiment in a line: Antiproliferative activity against human MCF7 cells assessed as inhibition of cell growth incubated for 24 hrs by MTT assay. As to conditions: MCF7, 24 h. A general note: Formazan colour is commonly taken as a measure of viable cells.
For assay [2], the system named is HeLa. The experiment in a line: Antiproliferative activity against human HeLa cells assessed as inhibition of cell growth incubated for 24 hrs by MTT assay.
For assay [3], the system named is HepG2. The experiment in a line: Antiproliferative activity against human HepG2 cells assessed as inhibition of cell growth incubated for 24 hrs by MTT assay. Conditions: HepG2, 24 h.
In assay [4] the test system is HCT-15. Kind of assay: Antiproliferative activity against human HCT-15 cells assessed as inhibition of cell growth incubated for 24 hrs by MTT assay. Conditions: HCT-15, 24 h.
Assay [5] relates to LOX IMVI. Kind of assay: Antiproliferative activity against human LOX IMVI cells assessed as inhibition of cell growth incubated for 24 to 48 hrs by SRB assay.
In assay [6] the test system is HeLa. The experiment in a line: Cytotoxicity against human HeLa cells assessed as inhibition of cell growth incubated for 48 hrs by MTT assay.
Assay [7] concerns A549. The experiment in a line: Antiproliferative activity against human A549 cells assessed as inhibition of cell growth incubated for 48 hrs by MTT assay. Conditions: A549, 48 h.
Assay [8] deals with THP-1. Kind of assay: Antiproliferative activity against human THP-1 cells assessed as inhibition of cell growth.
The test system of assay [9] is K562. The experiment in a line: Antiproliferative activity against human K562 cells assessed as inhibition of cell growth.
The subject of assay [10] is MV4-11. The experiment in a line: Cytotoxicity against human MV4-11 cells.
Assay [11] concerns MCF7. Kind of assay: Antiproliferative activity against human MCF7 cells assessed as inhibition of cell growth incubated for 72 hrs by MTT assay. As to conditions: MCF7, 72 h.
Assay [12] concerns THP-1. Kind of assay: Antiproliferative activity against human THP-1 cells assessed as inhibition of cell growth incubated for 72 hrs by MTT assay. As to conditions: THP-1, 72 h.
Assay [13] relates to HCT-116. The experiment in a line: Antiproliferative activity against human HCT-116 cells assessed as inhibition of cell growth incubated for 72 hrs by MTT assay. As to conditions: HCT-116, 72 h.
The nature of assay [14]: Antiproliferative activity against human KB-ChR-8-5-11 cells assessed as inhibition of cell growth incubated for 72 hrs by MTT assay. As to conditions: KB-ChR-8-5-11, 72 h.
Assay [15] has as its system Jurkat. The experiment in a line: Antiproliferative activity against human Jurkat cells assessed as inhibition of cell growth incubated for 72 hrs by MTT assay.
Assay [16] deals with J774.2. The experiment in a line: Antiproliferative activity against mouse J774.2 cells assessed as inhibition of cell growth incubated for 72 hrs by MTT assay. Conditions: J774.2, 72 h.
The nature of assay [17]: Antiproliferative activity against human NCI-H322T cells assessed as inhibition of cell growth incubated for 48 hrs by MTT assay.
Assay [18] deals with PC-3. Kind of assay: Antiproliferative activity against human PC-3 cells assessed as inhibition of cell growth incubated for 72 hrs by MTT assay. Conditions: PC-3, 72 h.
Assay [19] has as its system LNCaP. Kind of assay: Antiproliferative activity against human LNCaP cells assessed as inhibition of cell growth incubated for 72 hrs by MTT assay.
The subject of assay [20] is HCT-15. Kind of assay: Cytotoxicity against human HCT-15 cells incubated for 48 hrs by MTT assay. Conditions: HCT-15, 48 h.
For assay [21], the system named is HCT-116. The experiment in a line: Cytotoxicity against human HCT-116 cells incubated for 48 hrs by MTT assay. As to conditions: HCT-116, 48 h.
Assay [22] relates to T-24. The experiment in a line: Cytotoxicity against human T24 cells assessed as reduction in cell growth incubated for 48 hrs by MTT assay. Conditions: T-24, 48 h.
The test system of assay [23] is MCF7. The experiment in a line: Cytotoxicity against human MCF7 cells assessed as reduction in cell growth incubated for 48 hrs by MTT assay. Conditions: MCF7, 48 h.
For assay [24], the system named is DU-145. Kind of assay: Cytotoxicity against human DU-145 cells assessed as reduction in cell growth incubated for 48 hrs by MTT assay. Conditions: DU-145, 48 h.
Assay [25] is described as follows: Antiproliferative activity against human NCI-H358M cells assessed as inhibition of cell growth incubated for 72 hrs by MTT assay.
The subject of assay [26] is HCT-8. The experiment in a line: Antiproliferative activity against human HCT-8 cells assessed as inhibition of cell growth incubated for 72 hrs by MTT assay. Conditions: HCT-8, 72 h.
The test system of assay [27] is PC-3M. Kind of assay: Antiproliferative activity against human PC-3M cells assessed as inhibition of cell growth incubated for 72 hrs by MTT assay.
In assay [28] the test system is MDA-MB-435. Kind of assay: Antiproliferative activity against human MDA-MB-435 cells assessed as inhibition of cell growth incubated for 72 hrs by MTT assay. Conditions: MDA-MB-435, 72 h.
In assay [29] the test system is SF-295. Kind of assay: Antiproliferative activity against human SF-295 cells assessed as inhibition of cell growth incubated for 72 hrs by MTT assay. As to conditions: SF-295, 72 h.
The test system of assay [30] is OVCAR-8. Kind of assay: Antiproliferative activity against human OVCAR-8 cells assessed as inhibition of cell growth incubated for 72 hrs by MTT assay. As to conditions: OVCAR-8, 72 h.
Assay [31] deals with HL-60. The experiment in a line: Antiproliferative activity against human HL-60 cells assessed as inhibition of cell growth incubated for 72 hrs by MTT assay. Conditions: HL-60, 72 h.

pEC50, pIC50: −log10 of the molar value.

In general, pIC50 refers to the negative decadic logarithm of the IC50, by convention in mol/L. Take `O=C1C=C(SCCC(=O)N2CCN(c3ccccc3F)CC2)C(=O)c2ccccc21`: the figures for the pIC50 in assay [1], in assay [2] and in assay [3] were 4.79, 4.89 and 4.73, respectively.
With `O=C(NNC1=CC(=O)c2ccccc2C1=O)c1ccncc1`, the values for the negative logarithm of the IC50 (pIC50) in [1] and in assay [4] were 4.68 and 4.55, respectively.
Take `COc1cc(C2C3=C(Sc4[nH]c(=O)sc42)C(=O)c2ccccc2C3=O)ccc1O` (centres undefined): in [5], the pIC50 is 6.80.
With `CC(C)(C)SC1=C(Cl)C(=O)c2ccccc2C1=O`, the negative-log IC50 (pIC50) in assay [6] was 4.99.
`O=C1C=C(Nc2cccc(F)c2)C(=O)c2ccccc21`: the pIC50 in [7] was 5.21.
For the compound `CCNC1=CC(=O)c2ccccc2C1=O`, the pIC50 in [8] is 4.64; in [9], 4.11.
The term pEC50 denotes the negative decadic logarithm of the EC50, by convention in mol/L. For the compound `O=C(Cc1ccc(C(=O)NO)cc1)NC1=CC(=O)c2ccccc2C1=O`, the pEC50 in [10] was 6.44.
With `O=C1C2=C(C(=O)c3ccccc31)C(CCc1ccccc1)c1sc(=O)[nH]c1S2` (centres undefined), the pIC50 was 5.05 in assay [11]; 5.10 in [12]; 5.20 in [13]; 4.89 in [14]; 6.12 in assay [15]; 5.02 in assay [16].
Consider `N#Cc1ccccc1-n1cc(COc2cccc3c2C(=O)C=CC3=O)nn1`, for which the pIC50 in [17] was 5.10; in assay [7], 5.33.
For the compound `O=C1c2ccccc2C(=O)c2oc(-c3ccccc3Cl)nc21`, the pIC50 was 5.90 in assay [18] and 7.00 in assay [19].
For the compound `C=CC(C)(C)C(SC(=O)c1cc(OC)c(OC)c(OC)c1)c1cc(OC)c2c(c1OC)/C(=N\O)C=C/C2=N\O` (centres undefined), the results for the pIC50 in assay [20] and in assay [21] were 5.44 and 5.31, respectively.
For `COc1cc(NC2=C(C(=O)c3ccccc3)C(=O)c3ccccc3C2=O)cc(OC)c1OC`, the pIC50 in assay [22] is 4.93; in assay [23], 5.12; in [24] it was 5.09.
Consider `C[C@H](NC1=CC(=O)c2ccccc2C1=O)C(=O)O`, for which the pIC50 in assay [13] was 5.34; in assay [25], 5.47; in assay [26] it was 5.47; in assay [27], 5.18; in assay [28] it was 5.70; in assay [29], 5.59. Moreover, the negative-log IC50 (pIC50) in assay [30] is 5.02; in assay [31], 5.37.
